We go through 55 molecules from patent US20140005164A1, “WNT PATHWAY ANTAGONISTS” (Siena Biotech S.p.A., priority 2011, published 2014).

The experiment relates to Wnt/β-catenin pathway. As to the kind of experiment: Wnt reporter assay (TCF-Luciferase, Firefly) in DBTRG-05MG cells. The experiment is classed as cell-based. As to conditions: Homo sapiens, read-out: IC50 value in the reporter assay. The protocol: Three copies of a 4×TCF responsive elements were cloned into the pcDNA3.1/Zeo(+) vector (Invitrogen) after deletion of the constitutive CMV promoter and the insertion of the Firefly Luciferase from Promega (phFL-TK) to measure the activity of the Wnt/β-catenin pathway. The resulting plasmid was sequenced for quality control.
Cells were grown in 20 μg/ml Zeocin and 20 μg/ml Zeocin plus 30 μg/ml Hygromicin respectively. The cells were plated at a density of 6500 cells/well in poly-D-lysine pre-treated 96 well-plates.
36 hours after plating cells were incubated with 8-points dilutions compound (0.6% DMSO (v/v)). Each compound was tested in triplicate in single plate. Luciferase detection was done with Dual-Luciferase Reporter Assay System (Promega). 24 hours after compound addition, media was removed and 30 μl of 1× lysis buffer was added to each well for 30 minutes. To each well 45 μl of Dual-Glo Luciferase reagent (Promega) were added and after 1 second delay Luciferase was detected for 1 second using Mithras LB940 instrument. After Firefly luciferase quantification 45 μl of Dual Stop & Glo reagent (Promega) were added to each well and […] Renilla was detected using the same parameters described before.
Data were expressed as % of control for Firefly and Renilla luciferase independently; values were calculated using XLFit version 4.2, with a four parameters sigmoid function (XLFit model 205).
(A reporter such as luciferase makes a cellular process visible.)

Where [1] appears, read: TCF-Luciferase (Firefly) read out, 24 hours after compound addition, range given with mixed units nM and μM.

Where two headings read alike, the source gives them in different places.

As a reminder, the IC50 is the midpoint of a concentration-inhibition curve. In the case of `COc1ccc2c(c1)n(C[C@H]1CC[C@H](C(=O)Nc3cccc4oc(C5CC5)nc34)CC1)c(=O)n2C` [Example 67], the IC50 under setting [1] lay in the range of 35 to 23000 nM.
Still for that read-out and setting: then `Cn1c(=O)n(C[C@H]2CC[C@H](C(=O)N3CCN(c4nccs4)CC3)CC2)c2cc(Cl)ccc21` [Example 53], with 35 to 23000 nM.
On the same count and under the same terms, for `COCCOc1cc(NC(=O)[C@H]2CC[C@H](Cn3c(=O)n(C)c4c(Cl)cccc43)CC2)ccn1` [Example 42] the value was 35 to 23000 nM.
For the molecule `COc1ccc2c(c1)n(C[C@H]1CC[C@H](C(=O)N3CCN(c4ncc(Br)cn4)CC3)CC1)c(=O)n2C` [Example 80], under setting [1], the IC50 lay in the range of 35 to 23000 nM.
Same read-out and setting: for `COCCOc1cc(NC(=O)[C@H]2CC[C@H](Cn3c(=O)n(C)c4ccc(Cl)cc43)CC2)ccn1` [Example 40] the value was 35 to 23000 nM; for `Cn1c(=O)n(C[C@H]2CC[C@H](C(=O)N3CCN(c4ccncc4)CC3)CC2)c2cc(C(F)(F)F)ccc21` [Example 73], 35 to 23000 nM.
The same measure, in the same setting: then `CCOc1ccc2c(c1)n(C[C@H]1CC[C@H](C(=O)Nc3ccncc3)CC1)c(=O)n2C` [Example 17], with 35 to 23000 nM.
Same read-out and setting: then `COc1ccc2c(n1)n(C[C@H]1CC[C@H](C(=O)N3CCN(c4ncccn4)CC3)CC1)c(=O)n2C` [Example 26], with 35 to 23000 nM.
For `COc1ccc2c(c1)n(C[C@H]1CC[C@H](c3nnc(-c4cccc(OC(F)F)c4)o3)CC1)c(=O)n2C` [Example 118], the IC50 under setting [1] is 35 to 23000 nM.
On the same count and under the same terms, for `COc1ccc2c(c1)n(C[C@H]1CC[C@H](c3nnc(-c4cc(C)nn4C)o3)CC1)c(=O)n2C` [Example 149] the value was 35 to 23000 nM; for `Cn1c(=O)n(C[C@H]2CC[C@H](C(=O)Nc3ccncc3)CC2)c2cc(OCCF)ccc21` [Example 137], 35 to 23000 nM.
On the same count and under the same terms, then `Cn1c(=O)n(C[C@H]2CC[C@H](C(=O)Nc3ccncc3)CC2)c2nc(OCC(F)(F)F)ccc21` [Example 171], with 35 to 23000 nM; and `COc1ccc2c(c1)n(C[C@H]1CC[C@H](c3nnc(-c4ccncn4)o3)CC1)c(=O)n2C` [Example 117], with 35 to 23000 nM.
For `CC(=O)N1CCN(C(=O)[C@H]2CC[C@H](Cn3c(=O)n(C)c4ccc(Br)nc43)CC2)CC1` [Example 3, 3-[trans 4-(4-Acetyl-piperazine-1-carbonyl)cyclohexylmethyl]-5-bromo-1-methyl-1,3-dihydro-imidazo[4,5-b]pyridin-2-one], the IC50 under setting [1] is 35 to 23000 nM.
Still for that read-out and setting: for `COc1cc2c(cc1Cl)n(C[C@H]1CC[C@H](C(=O)N3CCN(c4ncccn4)CC3)CC1)c(=O)n2C` [Example 46] the value was 35 to 23000 nM; for `CN(C)CC#Cc1ccc2c(n1)n(C[C@H]1CC[C@H](C(=O)Nc3ccncc3)CC1)c(=O)n2C` [Example 119], 35 to 23000 nM; for `COc1ccc2c(c1)n(C[C@H]1CC[C@H](C(=O)N3CCC(F)(F)C3)CC1)c(=O)n2C` [Example 44], 35 to 23000 nM.
Take `Cn1c(=O)n(C[C@H]2CC[C@H](C(=O)Nc3ccncc3)CC2)c2cc(OCc3ccncc3)ccc21` [Example 151]: the IC50 under setting [1] was 35 to 23000 nM.
On the same count and under the same terms, then `COC/C=C/c1ccc2c(n1)n(C[C@H]1CC[C@H](C(=O)N3CCN(C(C)=O)CC3)CC1)c(=O)n2C` [Example 4, 3-[Trans-4-(4-Acetyl-piperazine-1-carbonyl)-cyclohexylmethyl]-5-((E)-3-methoxy-propenyl)-1-methyl-1,3-dihydro-imidazo[4,5-b]pyridin-2-one], with 35 to 23000 nM; and `Cc1cc(NC(=O)[C@H]2CC[C@H](Cn3c(=O)n(C)c4c(Cl)cccc43)CC2)ccn1` [Example 49], with 35 to 23000 nM; and `COc1ccc2c(c1)n(C[C@H]1CC[C@H](c3nnc(-c4c(C)nn(C)c4C)o3)CC1)c(=O)n2C` [Example 148], with 35 to 23000 nM.
On the same count and under the same terms, then `COCCNc1ccc2c(c1)n(C[C@H]1CC[C@H](C(=O)N3CCN(C(C)=O)CC3)CC1)c(=O)n2C` [Example 15, 3-[trans-4-(4-Acetyl-piperazine-1-carbonyl)-cyclohexylmethyl]-5-(2-methoxy-ethylamino)-1-methyl-1,3-dihydro-benzoimidazol-2-one], with 35 to 23000 nM.
The same measure, in the same setting: then `COc1ccc2c(c1)n(C[C@H]1CC[C@H](C(=O)Nc3cccnc3)CC1)c(=O)n2C` [Example 37], with 35 to 23000 nM.
As for `COc1ccc2c(c1)n(C[C@H]1CC[C@H](C(=O)N3CC4CCC(C3)O4)CC1)c(=O)n2C` [Example 63], the IC50 under setting [1] was 35 to 23000 nM.
Still for that read-out and setting: for `COc1ccc2c(c1)n(C[C@H]1CC[C@H](c3nnc(-c4cccnc4)o3)CC1)c(=O)n2C` [Example 96] the value was 35 to 23000 nM; for `COc1cc2c(cc1F)n(C)c(=O)n2C[C@H]1CC[C@H](C(=O)N2CCN(c3cnn(C)c3)CC2)CC1` [Example 183], 35 to 23000 nM.
Still for that read-out and setting: for `Cn1c(=O)n(C[C@H]2CC[C@H](C(=O)Nc3ccncc3)CC2)c2[nH]c(=O)ccc21` [Example 139] the value was 35 to 23000 nM.
For `COCCN(C)c1ncc2c(n1)n(C[C@H]1CC[C@H](C(=O)Nc3ccncc3)CC1)c(=O)n2C` [Example 8, Trans-4-{2-[(2-Methoxy-ethyl)-methyl-amino]-7-methyl-8-oxo-7,8-dihydro-purin-9-ylmethyl}-cyclohexanecarboxylic acid pyridine-4-ylamide], for the setting “24 h”, the IC50 lay in the range of 35 to 23000 nM.
As for `COc1ccc2c(c1)n(C[C@H]1CC[C@H](C(=O)N3CCN(c4ccnc(F)c4)CC3)CC1)c(=O)n2C` [Example 79], under setting [1], the IC50 lay in the range of 35 to 23000 nM.
The same measure, in the same setting: then `COc1cc(NC(=O)[C@H]2CC[C@H](Cn3c(=O)n(C)c4c(Cl)cccc43)CC2)ccn1` [Example 58], with 35 to 23000 nM; and `COc1cc2c(cc1F)n(C)c(=O)n2C[C@H]1CC[C@H](C(=O)N2CCN(c3ncccn3)CC2)CC1` [Example 178], with 35 to 23000 nM; and `Cn1c(=O)n(C[C@H]2CC[C@H](C(=O)N3CCN(c4cnccn4)CC3)CC2)c2cc(C#N)ccc21` [Example 155], with 35 to 23000 nM.
Same read-out and setting: for `COCCOCCOc1ccc2c(c1)n(C[C@H]1CC[C@H](C(=O)Nc3ccncc3)CC1)c(=O)n2C` [Example 129] the value was 35 to 23000 nM.
Same read-out and setting: then `COc1ccc2c(c1)n(C[C@H]1CC[C@H](C(=O)N3CCN(c4ccnc(OC)c4)CC3)CC1)c(=O)n2C` [Example 91], with 35 to 23000 nM.
As for `COCCOc1cc2c(cc1F)n(C)c(=O)n2C[C@H]1CC[C@H](C(=O)N2CCOCC2)CC1` [Example 177], the IC50 under setting [1] fell in the range of 35 to 23000 nM.
For `Cn1c(=O)n(C[C@H]2CC[C@H](C(=O)N3CCN(c4nccs4)CC3)CC2)c2c(Cl)cccc21` [Example 23], under setting [1], the IC50 was 35 to 23000 nM.
Still for that read-out and setting: then `COc1ccc2c(c1)n(C[C@H]1CC[C@H](C(=O)N3CCN(c4ccncc4)CC3)CC1)c(=O)n2C` [Example 76], with 35 to 23000 nM.
On the same count and under the same terms, for `COCCOc1ccc2c(n1)n(C[C@H]1CC[C@H](c3nnc(-c4cnn(C)c4)o3)CC1)c(=O)n2C` [Example 180] the value was 35 to 23000 nM; for `COc1cc2c(cc1F)n(C)c(=O)n2C[C@H]1CC[C@H](C(=O)Nc2ccncn2)CC1` [Example 159], 35 to 23000 nM.
Take `COc1ccc2c(c1)n(C[C@H]1CC[C@H](C(=O)N3CCN(c4ccc(F)nc4)CC3)CC1)c(=O)n2C` [Example 89]: under setting [1], the IC50 lay in the range of 35 to 23000 nM.
The same measure, in the same setting: for `COc1ccc2c(c1)n(C[C@H]1CC[C@H](C(=O)Nc3ccc(-c4nnco4)cc3)CC1)c(=O)n2C` [Example 66] the value was 35 to 23000 nM; for `COCCOc1ccc2c(n1)n(C[C@H]1CC[C@H](c3nnc(-c4cccnc4)o3)CC1)c(=O)n2C` [Example 181], 35 to 23000 nM.
The same measure, in the same setting: for `COc1ccc2c(c1)n(C[C@H]1CC[C@H](C(=O)N3CCN(c4cc(C)nc(C)c4)CC3)CC1)c(=O)n2C` [Example 94] the value was 35 to 23000 nM; for `Cn1c(=O)n(C[C@H]2CC[C@H](C(=O)N3CCN(c4ncccn4)CC3)CC2)c2cc(C(F)(F)F)ccc21` [Example 25], 35 to 23000 nM.
Still for that read-out and setting: then `COCCNc1ccc2c(n1)n(C[C@H]1CC[C@H](C(=O)Nc3ccncc3)CC1)c(=O)n2C` [Example 125], with 35 to 23000 nM; and `COc1ccc2c(c1)n(C[C@H]1CC[C@H](C(=O)Nc3ccc(OC)nc3)CC1)c(=O)n2C` [Example 31], with 35 to 23000 nM; and `COc1ccc2c(c1)n(C[C@H]1CC[C@H](C(=O)N3CCSCC3)CC1)c(=O)n2C` [Example 62], with 35 to 23000 nM.
On to `COc1cc2c(cc1F)n(C)c(=O)n2C[C@H]1CC[C@H](C(=O)Nc2ccnnc2)CC1` [Example 169], for which the IC50 under setting [1] was in the range of 35 to 23000 nM.
The same measure, in the same setting: then `Cn1c(=O)n(C[C@H]2CC[C@H](C(=O)N3CCN(c4nccs4)CC3)CC2)c2cc(C(F)(F)F)ccc21` [Example 24], with 35 to 23000 nM; and `Cn1c(=O)n(C[C@H]2CC[C@H](C(=O)Nc3ccncc3)CC2)c2cc(Br)ccc21` [Example 111], with 35 to 23000 nM; and `COc1ccc2c(c1)n(C[C@H]1CC[C@H](c3nnc(-c4ccc(C)nc4)o3)CC1)c(=O)n2C` [Example 98], with 35 to 23000 nM.
`Cn1ccc(N2CCN(C(=O)[C@H]3CC[C@H](Cn4c(=O)n(C)c5ccc(=O)[nH]c54)CC3)CC2)n1` [Example 134]: the IC50 under setting [1] was in the range of 35 to 23000 nM.
On to `Cc1cc(NC(=O)[C@H]2CC[C@H](Cn3c(=O)n(C)c4ccc(Cl)cc43)CC2)ccn1` [Example 39], for which the IC50 under setting [1] is 35 to 23000 nM.
Regarding `Cn1c(=O)n(C[C@H]2CC[C@H](C(=O)N3CCN(c4ncccn4)CC3)CC2)c2c(Cl)cccc21` [Example 21], the IC50 under setting [1] is 35 to 23000 nM.
On to `COc1ccc2c(c1)n(C[C@H]1CC[C@H](C(=O)N3CCN(c4ccn(C)n4)CC3)CC1)c(=O)n2C` [Example 132], for which the IC50 under setting [1] is 35 to 23000 nM.
